Data on 4 molecules can be found in US20160361314A1, “COMBINATION OF AN ALK INHIBITOR AND A CDK INHIBITOR FOR THE TREATMENT OF CELL PROLIFERATIVE DISEASES” (NOVARTIS AG, priority 2013, published 2016).

SMILES strings stand for the structures.

Test in all cases: Loewe additivity (CHALICE) synergy screen, CellTiter-Glo viability, 7x7 dose matrix
Common to all, as to type: cell-based
(In general: ATP-based viability assays read luminescence as a measure of living cells.)

Experiment [1] relates to NGP human neuroblastoma cells. Also on record: key to Synergy score (Mean): Loewe excess-inhibition synergy score; >0 synergistic, >2 strong; key to Max Combo Effect: growth inhibition scale; 100 = stasis. Conditions: NGP (WT). As for the experimental part:
The synergistic interaction of drug combinations were assessed based on the Loewe Additivity Model using Chalice software [CombinatoRx, Cambridge Mass.]). […] The software compares the response (% inhibition or % reduction of cell viability) of drug treatment from a combination of two agents to the response of the agents acting alone, against the drug-with-itself dose-additive reference model (the Loewe Additivity Model). Deviations from dose additives can be assessed numerically with a “synergy score” which quantifies the overall strength of combination effect. A synergy score >0 indicates a synergistic combination. In order to ensure only strongly synergistic combinations were selected, the acceptance criteria were set at a higher level. Strongly synergistic combinations were defined as having both a synergy score >2, a synergy score that is twice as large as the background (non-synergy) model would predict, and a maximum efficacy of >100, a value equivalent to stasis, as determined from the growth inhibition calculation.
(§1) After treatment, cell viabilty (quantity of viable cells) for each test mixtures were determined by the CellTiter-Glo® (CTG) luminescent cell viability assay (Promega) described in the Assay section, infra. […] The response to treatment (% reduction of cell viability) was analyzed using Chalice software [CombinatoRx, Cambridge Mass.]). Data evaluation and graph generation were performed using Microsoft Excel software and Chalice software.
(§2) Cell viability were determined by measuring cellular ATP content using the CellTiter-Glo® (CTG) luminescent cell viability assay (Promega). […] Reduced and enhanced luminescent signal values (responses) were calculated relative to untreated (control) cells, and the calculated signal value proportional to the cell viability.
(§3) Synergistic combinations were identified based on the Loewe Addivity Model. To measure the effects of drug combinations on the cell viability, cells from the 20 cell lines listed in Table 1 above were seeded into 1536-well assay plates at a density 300 cells per well in a 7 μL final volume and incubated at 37° C. overnight in a GNF Systems incubator with 95% RH and 5% CO2.
(§4) Approximately 18 hours after plating, compound combinations were generated on the fly by transferring 7.5 nL of compound from the pre-diluted source plates using the Labcyte ECHO555 integrated onto the ACP-1 system with replicate plates per cell line; the final DMSO concentration per well was 0.2%. It is noted that the total volume in the wells was 7 μL.
(§5) The well at the intersection of the first column and first row which received no compound was dosed with 2×7.5 nL of DMSO and served as control.
Following compound addition, the plates were returned to the incubator for 120 hours. The effects of the combinations on cellular viability were assessed with the addition of Cell Titer Glo (Promega G7573) using one of the GNF Bottle Valve dispensers on the ACP-1 system; plates were then incubated at room temperature for ten minutes and read on the integrated Perkin Elmer Viewlux (2 second exposure, 2×bin, high sensitivity). The raw data was normalized using the DMSO-treated cell control well within each plate.
All synergy calculations were performed using CHALICE software from Zalicus. […] Potential synergistic interactions between compound combinations were assessed using the Excess Inhibition 2D matrix according to the Loewe Additivity Model and are reported as synergy score.
Compounds were combined with themselves to determine the effect of assay noise on the synergy assessment parameters of the expected dose-additive interaction. Synergistic combination hits (strongly synergistic) were identified as having both a synergy score >2, a synergy score that is twice as large as the background model (non-synergy) would predict, and a maximum efficacy of >100, a value equivalent to stasis, as determined from the growth inhibition calculation.

In experiment [2] the test system is SK-N-FI human neuroblastoma cells. Set-up: key to Max Combo Effect: growth inhibition scale; 100 = stasis. Conditions: SK-N-FI (WT); for Max Combo Effect: in % (unit assumed). As for the experimental part: (§6) The synergistic interaction of drug combinations were assessed based on the Loewe Additivity Model using Chalice software [CombinatoRx, Cambridge Mass.]). […] 27:659-66. The software compares the response (% inhibition or % reduction of cell viability) of drug treatment from a combination of two agents to the response of the agents acting alone, against the drug-with-itself dose-additive reference model (the Loewe Additivity Model). Deviations from dose additives can be assessed numerically with a “synergy score” which quantifies the overall strength of combination effect. A synergy score >0 indicates a synergistic combination. In order to ensure only strongly synergistic combinations were selected, the acceptance criteria were set at a higher level. Strongly synergistic combinations were defined as having both a synergy score >2, a synergy score that is twice as large as the background (non-synergy) model would predict, and a maximum efficacy of >100, a value equivalent to stasis, as determined from the growth inhibition calculation.
as §1
(§7) The combinations were tested in duplicate using a 7×7 dose matrix block in 1536 well format with a cell proliferation readout as described in the Assay section infra.
(§8) All synergy calculations were performed using CHALICE software package from Zalicus and potential synergistic interactions between compound combinations were assessed using the Excess Inhibition 2D matrix according to the Loewe additivity model and were reported as synergy score (Table 10) (Lehar et al). Strongly synergistic combination were identified as having both (1) a synergy score greater than 2, a synergy score that is twice as large as the background (non-synergy) model would predict, and (2) a maximum efficacy of >100, a value roughly equivalent to stasis, as determined from the growth inhibition calculation.
as §2, §3
(§9) A six-point dose response curve for the test compounds were prepared in a 384 well ECHO compatible source plate (Labcyte P-05525) with 3-fold serial dilution series. For example, for a six-point dose response curve and a top compound concentration of 5 mM, the concentration of the compounds in the source well were 5 mM, 1.67 mM, 0.56 mM, 0.19 mM, 0.06 mM and 0.02 mM.
as §4, §5

Experiment [3] concerns NB-1 human neuroblastoma cells. Also on record: key to Max Combo Effect: growth inhibition scale; 100 = stasis. The conditions noted are these: for Max Combo Effect: in % (unit assumed). The procedure: as §6, §1, §7, §8, §2, §3, §9, §4, §5
Experiment [4] concerns NB-1691 human neuroblastoma cells. Set-up: key to Max Combo Effect: growth inhibition scale; 100 = stasis. Conditions: NB-1691 (WT); for Max Combo Effect: in % (unit assumed). The procedure: as §6, §1, §7, §8, §2, §3, §9, §4, §5
In experiment [5] the test system is SH-SY5Y human neuroblastoma cells. Also on record: key to Max Combo Effect: growth inhibition scale; 100 = stasis. The conditions noted are these: SH-SY5Y (F1174L). As for the experimental part:
as §6, §1, §7, §8, §2, §3, §9, §4, §5

Experiment [6] relates to NLF human neuroblastoma cells. Also on record: key to Max Combo Effect: growth inhibition scale; 100 = stasis. The conditions noted are these: NLF (WT). As for the experimental part: as §6, §1, §7, §8, §2, §3, §9, §4, §5
For experiment [7], the system named is IMR-5 human neuroblastoma cells. Set-up: key to Max Combo Effect: growth inhibition scale; 100 = stasis. As for the experimental part: as §6, §1, §7, §8, §2, §3, §9, §4, §5

For the molecule `Cc1cc(Nc2ncc(Cl)c(Nc3ccccc3S(=O)(=O)C(C)C)n2)c(OC(C)C)cc1C1CCNCC1` [Compound A1, 5-chloro-N2-(2-isopropoxy-5-methyl-4-(piperidin-4-yl)phenyl)-N4-[2-(propane-2-sulfonyl)-phenyl]-pyrimidine-2,4-diamine], the “Max Combo Effect” value in experiment [1] (Table 2) is recorded as 104.1; in experiment [2] (Table 2), 59.7; in experiment [3] (NB-1 (WT Amp), Table 2) it was 181.9; in experiment [4] (Table 2), 111.9; in experiment [5] (Table 2), 91.5; in experiment [6] (Table 2) it was 27.1. Also, the “Max Combo Effect” value in experiment [7] (IMR-5 (ALK WT), Table 2) worked out at 80.4. Moreover, the “Synergy score (Mean)” value in experiment [1] (Table 2) is listed as 0.822; in experiment [2] (Table 2), 1.135; in experiment [3] (NB-1 (WT Amp), Table 2), 1.607; in experiment [4] (Table 2), 0.760; in experiment [5] (Table 2) it was 0.638; in experiment [6] (Table 2), 0.152. In addition, the “Synergy score (Mean)” value in experiment [7] (IMR-5 (ALK WT), Table 2) is 0.884.
Turning to `Cc1cc(Nc2nc(Nc3ccccc3S(=O)(=O)C(C)C)c3cn[nH]c3n2)c(OC(C)C)cc1C1CCN(C)CC1` [Compound A2, N6-(2-isopropoxy-5-methyl-4-(1-methylpiperidin-4-yl)phenyl)-N4-(2-(isopropylsulfonyl)phenyl)-1H-pyrazolo[3,4-d]pyrimidine-4,6-diamine], the “Max Combo Effect” value in experiment [1] (Table 3) came out at 184.04; in experiment [2] (Table 3), 161.68; in experiment [3] (NB-1 (WT_Amp), Table 3), 193.34; in experiment [4] (Table 3) it was 196.56; in experiment [6] (Table 3), 183.68; in experiment [7] (IMR-5 (WT), Table 3), 179.71. For the same molecule, the “Synergy score (Mean)” value in experiment [1] (Table 3) is listed as 0.84; in experiment [2] (Table 3), 0.65; in experiment [3] (NB-1 (WT_Amp), Table 3) it was “identified as synergistic”; in experiment [3] (NB-1 (WT_Amp), Table 3, listed as Cmpd A2 Self Cross), 2.97; in experiment [4] (Table 3) it was 0.97; in experiment [6] (Table 3), 0.63. Further, the “Synergy score (Mean)” value in experiment [7] (IMR-5 (WT), Table 3) was 0.23.
`C[C@@H](Oc1cc(-c2cnn(C3CCNCC3)c2)cnc1N)c1c(Cl)ccc(F)c1Cl` [Compound A3, (R)-3-(1-(2,6-dichloro-3-fluorophenyl)ethoxy)-5-(1-(piperidin-4-yl)-1H-pyrazol-4-yl)pyridin-2-amine, reference compound]: the “Max Combo Effect” value in experiment [1] (Table 3) is on record as 11.39; in experiment [2] (Table 3) it was 20.37; in experiment [4] (Table 3), 36.53; in experiment [5] (Table 3), 141.61; in experiment [6] (Table 3), 29.10; in experiment [7] (IMR-5 (WT), Table 3), 99.95. The “Synergy score (Mean)” value in experiment [1] (Table 3) is reported as 0.01; in experiment [4] (Table 3), 0.21; in experiment [5] (Table 3) it was 0.98; in experiment [6] (Table 3) it was 0.08; in experiment [7] (IMR-5 (WT), Table 3), 0.73.
Consider `CN(C)C(=O)c1cc2cnc(Nc3ccc(N4CCNCC4)cn3)nc2n1C1CCCC1` [Compound B, 7-cyclopentyl-N,N-dimethyl-2-((5-(piperazin-1-yl)pyridin-2-yl)amino)-7H-pyrrolo[2,3-d]pyrimidine-6-carboxamide], for which the “Max Combo Effect” value was 31.2 in experiment [1] (Table 2); 17.0 in experiment [1] (Table 3); 60.3 in experiment [2] (Table 2); 51.2 in experiment [2] (Table 3); 111.0 in experiment [3] (NB-1 (WT Amp), Table 2); 40.57 in experiment [3] (NB-1 (WT_Amp), Table 3). Also, the “Max Combo Effect” value worked out at 121.1 in experiment [4] (Table 2); 91.57 in experiment [4] (Table 3); 86.8 in experiment [5] (Table 2); 35.3 in experiment [5] (Table 3); 43.9 in experiment [6] (Table 2); 45.7 in experiment [6] (Table 3). For the same molecule, the “Max Combo Effect” value in experiment [7] (IMR-5 (ALK WT), Table 2) amounted to 82.0; in experiment [7] (IMR-5 (WT), Table 3), 89.02. The “Synergy score (Mean)” value is reported as 0.084 in experiment [1] (Table 2); 0.01 in experiment [1] (Table 3); 0.435 in experiment [2] (Table 2); 0.21 in experiment [2] (Table 3); 1.429 in experiment [3] (NB-1 (WT Amp), Table 2); 0.34 in experiment [3] (NB-1 (WT_Amp), Table 3). Besides, the “Synergy score (Mean)” value in experiment [4] (Table 2) is 1.032; in experiment [4] (Table 3) it was 0.38; in experiment [5] (Table 2) it was 0.811; in experiment [5] (Table 3) it was 0.09; in experiment [6] (Table 2), 0.122; in experiment [6] (Table 3) it was 0.54. Also, the “Synergy score (Mean)” value in experiment [7] (IMR-5 (ALK WT), Table 2) is 0.788; in experiment [7] (IMR-5 (WT), Table 3), 1.04.
